Molecules are shown by their SMILES. Where a name gives a salt, the structure may show the parent alone.

The first data set can be described thus: in vitro. The following applies: rat, gh3-tre-luc cells, AC50 (uM) modified / 1000.
`Nc1ccc(N)c2ccccc12` [1,4-Naphthalenediamine] gave a 50% cytotoxic concentration (CC50) at 24 h above 90 µM. `OCCN1CCN(CCO)CC1` [1,4-Piperazinediethanol]: the half-maximal cytotoxic concentration (CC50) at 24 h is above 90 µM. Consider `NCCCN1CCN(CCCN)CC1` [1,4-bis(3-Aminopropyl)piperazine], for which the half-maximal cytotoxic concentration (CC50) at 24 h is above 90 µM. In turn, `C1=C\CC/C=C/CC/C=C/CC/1` [1,5,9-Cyclododecatriene] gave a CC50 at 24 h above 90 µM. On to `C1=C\CC/C=C\CC/1` [1,5-Cyclooctadiene], for which the half-maximal cytotoxic concentration (CC50) at 24 h is above 100 µM. The compound `O=C(/C=C/c1ccc(O)c(O)c1)O[C@@H]1C[C@](OC(=O)/C=C/c2ccc(O)c(O)c2)(C(=O)O)C[C@@H](O)[C@H]1O` [1,5-Dicaffeoylquinic acid] came in with a CC50 at 24 h above 50 µM.

Compound `C=CCCC=C` [1,5-Hexadiene] gave a CC50 at 24 h above 90 µM. On to `Nc1cccc2c(N)cccc12` [1,5-Naphthalenediamine], for which the 50% cytotoxic concentration (CC50) at 24 h was above 90 µM. The compound `O=S(=O)(O)c1cccc2c(S(=O)(=O)O)cccc12` [1,5-Naphthalenedisulfonic acid, disodium salt hydrate] registered a CC50 at 24 h above 90 µM. In turn, `OCCCCCO` [1,5-Pentanediol] displayed a CC50 at 24 h above 100 µM.

Take `O=C=NCCCCCCN=C=O` [1,6-Diisocyanatohexane]: the CC50 at 24 h is above 90 µM. Consider `Cc1ccc2c(C)cccc2c1` [1,6-Dimethylnaphthalene], for which the CC50 at 24 h was above 90 µM.

`NCCCCCCN` [1,6-Hexanediamine] came in with a CC50 at 24 h above 90 µM. `C=C(C)C(=O)OCCCCCCOC(=O)C(=C)C` [1,6-Hexanediol dimethacrylate] showed a CC50 at 24 h above 90 µM.

Turning to `OCCCCCCO` [1,6-Hexanediol], the half-maximal cytotoxic concentration (CC50) at 24 h was above 90 µM. The same measure, in the same setting: in the case of `C1CCC2(CCCCO2)OC1` [1,7-Dioxaspiro[5.5]undecane] it was above 90 µM; in that of `Oc1cccc2cc3cccc(O)c3c(O)c12` [1,8,9-Trihydroxyanthracene], above 90 µM; in that of `CC12CCC(CC1)C(C)(C)O2` [1,8-Cineol], above 90 µM.

In turn, `CC1(N)CCC(C(C)(C)N)CC1` (stereo not shown) [1,8-Diamino-p-menthane] came in with a CC50 at 24 h above 90 µM.

`C1CCC2=NCCCN2CC1` [1,8-Diazabicyclo[5.4.0]undec-7-ene] had a 50% cytotoxic concentration (CC50) at 24 h above 90 µM.

`O=C1c2c(O)ccc([N+](=O)[O-])c2C(=O)c2c([N+](=O)[O-])ccc(O)c21` [1,8-Dihydroxy-4,5-dinitroanthraquinone] came in with a CC50 at 24 h of 8.27 µM. As to `SCCCCCCCCS` [1,8-Octanedithiol], the CC50 at 24 h is above 90 µM. In turn, `C=CCCCCCCC=C` [1,9-Decadiene] displayed a 50% cytotoxic concentration (CC50) at 24 h above 90 µM. With `C=C(C)C(=O)OCCCCCCCCCCOC(=O)C(=C)C` [1,10-Decanediol dimethacrylate], the CC50 at 24 h was above 90 µM. The compound `CCC(=O)C=CC1C(C)=CCCC1(C)C` (stereo not shown) [1-(2,6,6-Trimethyl-2-cyclohexen-1-yl)-1-penten-3-one] registered a 50% cytotoxic concentration (CC50) at 24 h above 90 µM.

On to `O=C1Cc2ccccc2N1c1c(Cl)cccc1Cl` [1-(2,6-Dichlorophenyl)-2-indolinone], for which the CC50 at 24 h was above 90 µM. On to `NCCN1CCNC1=O` [1-(2-Aminoethyl)imidazolidin-2-one], for which the CC50 at 24 h was above 90 µM. On to `NCCN1CCNCC1` [1-(2-Aminoethyl)piperazine], for which the cytotoxic concentration (CC50) at 24 h was above 90 µM. On to `CCCCOCC(C)OCC(C)O` (stereo not shown) [1-(2-Butoxy-1-methylethoxy)propan-2-ol], for which the CC50 at 24 h is above 90 µM.

`Cn1cc[n+](CCO)c1` [1-(2-Hydroxyethyl)-3-methylimidazolium chloride] returned a 50% cytotoxic concentration (CC50) at 24 h above 90 µM. Same read-out and setting: the result for `O=C1CCCN1CCO` [1-(2-Hydroxyethyl)pyrrolidin-2-one] reads above 90 µM; that for `C=C(C)c1cccc(C(C)(C)N=C=O)c1` [1-(2-Isocyanatopropan-2-yl)-3-(prop-1-en-2-yl)benzene], above 90 µM; that for `CC(C)(C)C(=O)CCc1ccc(Cl)cc1` [1-(4-Chlorophenyl)-4,4-dimethyl-pentan-3-one], above 90 µM.

Turning to `CC(C)(C)C(=O)/C=C/c1ccc(Cl)cc1` [1-(4-Chlorophenyl)-4,4-dimethylpent-1-en-3-one], the CC50 at 24 h is above 90 µM. For the compound `CNC(C)C(O)c1ccc(O)cc1` (stereo not shown) [1-(4-Hydroxyphenyl)-2-methyl-2-methylaminoethanol hydrochloride], the CC50 at 24 h was above 50 µM. In turn, `CCC(=O)/C=C/c1ccc(OC)cc1` [1-(4-Methoxyphenyl)-1-pentene-3-one] had a CC50 at 24 h above 90 µM. `CCC(=O)C1CC(C(C)C)CC=C1C` (stereo not shown) [1-(5-Isopropyl-2-methyl-cyclohex-2-enyl)-propan-1-one] came in with a CC50 at 24 h above 90 µM. Same read-out and setting: the result for `CC(=O)c1cc(C(C)(C)C)cc2c1CCC2(C)C` [1-(6-tert-Butyl-1,1-dimethyl-2,3-dihydro-1H-inden-4-yl)ethanone] reads 40.7 µM; that for `BrCc1cccc(Oc2ccccc2)c1` [1-(Bromomethyl)-3-phenoxybenzene], above 90 µM. In turn, `Cc1ccccc1CCl` [1-(Chloromethyl)-2-methylbenzene] showed a CC50 at 24 h above 90 µM.

On to `CC1(C)C(=O)NC(=O)N1CO` [1-(Hydroxymethyl)-5,5-dimethylhydantoin], for which the cytotoxic concentration (CC50) at 24 h was above 90 µM.

Compound `CCCCCCCCCCCCSC` [1-(Methylsulfanyl)dodecane] registered a cytotoxic concentration (CC50) at 24 h above 90 µM. Regarding `C=CC(=O)N1CCOCC1` [1-(Morpholin-4-yl)prop-2-en-1-one], the CC50 at 24 h is above 90 µM. In turn, `Cc1ccccc1NC(=N)NC(=N)N` [1-(o-Tolyl)biguanide] displayed a CC50 at 24 h above 90 µM.

Consider `C=CCn1cc[n+](C)c1` [1-Allyl-3-methylimidazolium chloride], for which the CC50 at 24 h is above 90 µM.

`Cc1ccc2c(c1N)C(=O)c1ccccc1C2=O` [1-Amino-2-methylanthraquinone] gave a CC50 at 24 h of 78.4 µM.

The compound `CC(O)CN` (stereo not shown) [1-Amino-2-propanol] gave a CC50 at 24 h above 90 µM.

As for `N#CC1(N)CCCCC1` [1-Aminocyclohexanecarbonitrile], the CC50 at 24 h is above 90 µM. `CC(=O)CC(=O)c1ccccc1` [1-Benzoylacetone] came in with a 50% cytotoxic concentration (CC50) at 24 h above 90 µM. As to `C[n+]1ccn(Cc2ccccc2)c1` [1-Benzyl-3-methylimidazolium chloride], the CC50 at 24 h is above 90 µM. For `c1ccc(C[n+]2cccc3ccccc32)cc1` [1-Benzylquinolinium chloride], the cytotoxic concentration (CC50) at 24 h was above 90 µM. `CC1(C)C(=O)N(Cl)C(=O)N1Br` [1-Bromo-3-chloro-5,5-dimethylhydantoin] displayed a CC50 at 24 h above 90 µM.

The same data set, now with this note: rat, gh3-tre-luc cells, AC50 (uM) modified / 1000, Tox21_110001=Tox21_110110; viability, 1 nM T3 present, 24 h.
With `Clc1cccc(N2CCNCC2)c1` [1-(3-Chlorophenyl)piperazine], the CC50 at 24 h is above 50 µM.

Still in this data set, the particulars now being: rat, gh3-tre-luc cells, AC50 (uM) modified / 1000, Tox21_110001=Tox21_111273; viability, 1 nM T3 present, 24 h.
Consider `COc1ccccc1N1CCNCC1` [1-(2-Methoxyphenyl)piperazine hydrochloride], for which the 50% cytotoxic concentration (CC50) at 24 h is above 50 µM.

Still in this data set, the particulars now being: rat, gh3-tre-luc cells, AC50 (uM) modified / 1000, Tox21_110001=Tox21_112833; viability, 1 nM T3 present, 24 h.
On to `CC(=O)OC1(c2ccccc2)CCN(CCc2ccccc2)CC1` [1-(2-Phenylethyl)-4-phenyl-4-acetoxypiperidine], for which the midpoint of cytotoxicity, the CC50 at 24 h, lay at 84.5 µM.

The same data set, now with this note: rat, gh3-tre-luc cells, AC50 (uM) modified / 1000, Tox21_110001=Tox21_112842; viability, 1 nM T3 present, 24 h.
In the case of `COc1cc(CC(C)N)cc2c1OCO2` (stereo not shown) [1-(7-Methoxy-1,3-benzodioxol-5-yl)propan-2-amine hydrochloride], the CC50 at 24 h was above 100 µM.

The data set is the same for the next values; noted with them: rat, gh3-tre-luc cells, AC50 (uM) modified / 1000, Tox21_110001=Tox21_112852; viability, 1 nM T3 present, 24 h.
In turn, `CC(Cc1ccc2c(c1)OCO2)NO` (stereo not shown) [1-(1,3-Benzodioxol-5-yl)-N-hydroxypropan-2-amine hydrochloride] gave a half-maximal cytotoxic concentration (CC50) at 24 h above 100 µM.

Staying with this data set, now noted: rat, gh3-tre-luc cells, AC50 (uM) modified / 1000, Tox21_110001=Tox21_112882; viability, 1 nM T3 present, 24 h.
Compound `c1ccc(CN2CCNCC2)cc1` [1-Benzylpiperazine difumarate] came in with a half-maximal cytotoxic concentration (CC50) at 24 h above 200 µM.

Still in this data set, the particulars now being: rat, gh3-tre-luc cells, AC50 (uM) modified / 1000, Tox21_110001=Tox21_112889; viability, 1 nM T3 present, 24 h.
With `CNC(C)Cc1ccc2c(c1)OCO2` (stereo not shown) [1-(1,3-Benzodioxol-5-yl)-N-methylpropan-2-amine hydrochloride], the CC50 at 24 h is above 100 µM.

The same data set, now with this note: rat, gh3-tre-luc cells, AC50 (uM) modified / 1000, Tox21_110001=Tox21_113550; viability, 1 nM T3 present, 24 h.
`CC=C(CC)C(=O)NC(N)=O` [1-(2-Ethylcrotonoyl)urea] came in with a 50% cytotoxic concentration (CC50) at 24 h above 50 µM.

The data set is the same for the next values; noted with them: rat, gh3-tre-luc cells, AC50 (uM) modified / 1000, Tox21_110001=Tox21_200069; viability, 1 nM T3 present, 24 h.
`CC(=O)NNc1ccccc1` [1-Acetyl-2-phenylhydrazine]: the 50% cytotoxic concentration (CC50) at 24 h amounted to 7.15 µM.

Staying with this data set, now noted: rat, gh3-tre-luc cells, AC50 (uM) modified / 1000, Tox21_110001=Tox21_200953; viability, 1 nM T3 present, 24 h.
In turn, `O=[N+]([O-])c1cccc2c([N+](=O)[O-])cccc12` [1,5-Dinitronaphthalene] gave a CC50 at 24 h above 90 µM.

The same data set, now with this note: rat, gh3-tre-luc cells, AC50 (uM) modified / 1000, Tox21_110001=Tox21_202582; viability, 1 nM T3 present, 24 h.
`Nc1c(Br)cc(Br)c2c1C(=O)c1ccccc1C2=O` [1-Amino-2,4-dibromoanthraquinone] returned a CC50 at 24 h above 20 µM.

Still in this data set, the particulars now being: rat, gh3-tre-luc cells, AC50 (uM) modified / 1000, Tox21_110001=Tox21_202886; viability, 1 nM T3 present, 24 h.
Compound `O=[N+]([O-])c1cccc2cccc([N+](=O)[O-])c12` [1,8-Dinitronaphthalene] came in with a half-maximal cytotoxic concentration (CC50) at 24 h above 90 µM.

The same data set, now with this note: rat, gh3-tre-luc cells, AC50 (uM) modified / 1000, Tox21_110001=Tox21_203002; viability, 1 nM T3 present, 24 h.
Regarding `NC(=S)Nc1cccc2ccccc12` [1-(1-Naphthyl)-2-thiourea], the cytotoxic concentration (CC50) at 24 h was above 5 µM.

The same data set, now with this note: rat, gh3-tre-luc cells, AC50 (uM) modified / 1000, Tox21_110001=Tox21_302059; viability, 1 nM T3 present, 24 h.
In turn, `BrCCCCCCBr` [1,6-Dibromohexane] gave a CC50 at 24 h above 90 µM.

The same data set, now with this note: rat, gh3-tre-luc cells, AC50 (uM) modified / 1000, Tox21_110001=Tox21_302121; viability, 1 nM T3 present, 24 h.
`ClCCCCCCCl` [1,6-Dichlorohexane] came in with a CC50 at 24 h above 90 µM.

In general, CC50 refers to the concentration that lowers cell viability or growth by half.
